From patent US20250084044A1, “PROTOPORPHYRINOGEN OXIDASE INHIBITORS” (Enko Chem, Inc., priority 2022, published 2025)

Assays:
Format in all cases: in vivo
Kochia scoparia (KCHSC) [1] = assay: Post-emergence herbicidal activity, KCHSC; conditions: 7 days after treatment, Table 3b
Protocol: (§1) Selected compounds of the invention were screened at 100 PPM against Amaranthus retroflexus (AMARE), Echinochloa crus-galli (ECHCG), Kochia scoparia (KCHSC), and Setaria italica (SETIT).
(§2) Accordingly, PPO susceptible weed seeds were sown in 5″ 5″ pots by quadrant containing Miracle-Gro potting mix (Scotts Miracle-Gro Company, Marysville, OH, USA) and grown in a Conviron growth chamber with appropriate growth conditions (temperature of 26/22° C. with photoperiod 16/8 h light day/night and light intensity of […] supplemented by LED lamps). Relative humidity in the growth chamber was maintained at around 65%. Plants were grown until 2-4 leaf stage and thinned to 5-8 plants per quadrant per species.
(§3) Compounds were formulated in 25% Acetone, 1% Crop oil concentrate (COC-Agridex), 0.1% Tween-20, and 2.5% Ammonium sulphate (AMS). Three replicate pots were treated with each compound. Treatment consisting of the above formulation excluding active compound was applied as a treatment control (TC). Plants were treated with the test compound solution in a laboratory spray chamber fitted with 8003 flat fan nozzles calibrated to deliver 187-200 L ha^−1 at 269 kPa. Plants were placed back in the growth chamber and evaluated for % visual injury compared to TC 7 days after treatment (DAT). The data presented in Table 3 indicate a percentage control, where 100% control indicates complete inhibition of growth.

Setaria italica (SETIT) [2] = assay: Post-emergence herbicidal activity, SETIT; conditions: 7 days after treatment; for Post-emergence (100 ppm) SETIT: Table 3b; for pest or weed control at 100 ppm: Setaria italica, 168 h, Table 3a
Protocol: Selected compounds of the invention were screened at 100 PPM against Amaranthus retroflexus (AMARE), Setaria italica (SETIT), and Echinochloa crus-galli (ECHCG).
Accordingly, PPO susceptible weed seeds were sown in 5″×5″ pots by quadrant containing Miracle-Gro potting mix (Scotts Miracle-Gro Company, Marysville, OH. USA) and grown in a Conviron growth chamber with appropriate growth conditions (temperature of 26/22° C. with photoperiod 16/8 h light day/night and light intensity of 300 μmol m^−2 s^−1 supplemented by LED lamps). Relative humidity in the growth chamber was maintained at around 65%. Plants were grown until 2-4 leaf stage and thinned to 5-8 plants per quadrant per species.
as §3, §1, §2

Kochia scoparia (KCHSC) [3] = assay: Pre-emergence herbicidal activity, KCHSC; conditions: 7 days after treatment
Excerpt: (§4) Selected compounds of the invention were screened at 200 PPM against Amaranthus retroflexus (AMARE). Echinochloa crus-galli (ECHCG). Kochia scoparia (KCHSC), and Selaria italica (SETIT).
(§5) Accordingly, PPO susceptible weed seeds were planted in 5″×5″ pots by quadrant containing custom field soil mix (Sandy loam with 4.7% OM, pH 7.0) and covered with a fine layer of the same soil. Compounds were formulated in 25% Acetone, 1% Crop oil concentrate (COC-Agridex), 0.1% Tween-20, and 2.5% Ammonium sulphate (AMS). Three replicate pots were treated with each compound. Treatment consisting of the above formulation excluding active compound was applied as a treatment control (TC). Pots were treated with the test compound solution in a laboratory spray chamber fitted with 8003 flat fan nozzles calibrated to deliver 187-200 L ha^−1 at 269 kPa. Compound was incorporated into the soil by simulating rainfall equivalent to 0.2 mm using the same track sprayer. Subsequently, pots were irrigated from the bottom until assessed for % growth and germination inhibition. Pots were placed back in the growth chamber and evaluated for % growth and germination inhibition compared to TC 7 days after treatment (DAT). Growth conditions are similar to the ones mentioned in POST emergence assay.
(§6) The data presented in Table 4 indicate a percentage control, where 100% control indicates complete inhibition of growth.

[4] = tested on: Echinochloa crus-galli (ECHCG); assay: Pre-emergence herbicidal activity, ECHCG; conditions: 7 days after treatment
Excerpt: as §4, §5, §6

[5] = tested on: Amaranthus retroflexus (AMARE); assay: Post-emergence herbicidal activity, AMARE; conditions: 7 days after treatment; for Post-emergence (100 ppm) AMARE: Table 3b; for pest or weed control at 100 ppm: Amaranthus retroflexus, 168 h, Table 3a
Protocol: (§7) Selected compounds of the invention were screened at 100 PPM against Amaranthus retroflexus (AMARE), Setaria italica (SETIT), and Echinochloa crus-galli (ECHCG). […]
as §3, with “growth. […]” for “growth.”

Setaria italica (SETIT) [6] = assay: Pre-emergence herbicidal activity, SETIT; conditions: 7 days after treatment
Excerpt: as §4, §5, §6

[7] = tested on: Echinochloa crus-galli (ECHCG); assay: Post-emergence herbicidal activity, ECHCG; conditions: 7 days after treatment; for Post-emergence (100 ppm) ECHCG: Table 3b; for pest or weed control at 100 ppm: Echinochloa crus-galli, 168 h, Table 3a
Protocol: as §7
as §3, with “growth. […]” for “growth.”

[8] = tested on: Amaranthus retroflexus (AMARE); assay: Pre-emergence herbicidal activity, AMARE; conditions: 7 days after treatment
Excerpt: as §4, §5, §6

Question: For `COC(=O)CCN(C)C(=O)CN1C(=O)C(F)(F)Oc2cc(F)c(-c3c(F)c(F)c(F)c(F)c3F)cc21` [Compound 80, methyl 3-(N-methyl-2-(2,2,7-trifluoro-3-oxo-6-(perfluorophenyl)-2,3-dihydro-4H-benzo[b][1,4]oxazin-4-yl)acetamido)propanoate], which “Post-emergence (100 ppm) KCHSC” value (Kochia scoparia (KCHSC) [1]) is on record?
Answer: 20%

Question: What about the “Post-emergence (100 ppm) SETIT” value (Setaria italica (SETIT) [2]) of the same compound?
Answer: 93%

Question: What about the pest or weed control at 100 ppm (Setaria italica (SETIT) [2]) of the same compound?
Answer: 93%

Question: What about the “Pre-emergence (200 ppm) KCHSC” value (Kochia scoparia (KCHSC) [3]) of the same compound?
Answer: 0%

Question: What about the “Pre-emergence (200 ppm) ECHCG” value [4] of the same compound?
Answer: 0%

Question: And the “Post-emergence (100 ppm) AMARE” value [5]?
Answer: 100%

Question: What about the pest or weed control at 100 ppm [5] of the same compound?
Answer: 100%

Question: What about the “Pre-emergence (200 ppm) SETIT” value (Setaria italica (SETIT) [6]) of the same compound?
Answer: 3%

Question: What about the “Post-emergence (100 ppm) ECHCG” value [7] of the same compound?
Answer: 75%

Question: And the pest or weed control at 100 ppm [7]?
Answer: 75%

Question: What about the “Pre-emergence (200 ppm) AMARE” value [8] of the same compound?
Answer: 98%

Question: Which “Post-emergence (100 ppm) KCHSC” value (Kochia scoparia (KCHSC) [1]) does the source give for `C[C@@H](C(=O)O)N1C(=O)C(F)(F)Oc2cc(F)c(-c3c(F)cc(F)c(F)c3F)cc21` [Compound 78, (2S)-2-(2,2,7-trifluoro-3-oxo-6-(2,3,4,6-tetrafluorophenyl)-2,3-dihydro-4H-benzo[b][1,4]oxazin-4-yl)propanoic acid] here?
Answer: 93%

Question: And the “Post-emergence (100 ppm) SETIT” value (Setaria italica (SETIT) [2])?
Answer: 100%

Question: What about the pest or weed control at 100 ppm (Setaria italica (SETIT) [2]) of the same compound?
Answer: 100%

Question: And the “Pre-emergence (200 ppm) KCHSC” value (Kochia scoparia (KCHSC) [3])?
Answer: 60%

Question: And the “Pre-emergence (200 ppm) ECHCG” value [4]?
Answer: 5%

Question: What about the “Post-emergence (100 ppm) AMARE” value [5] of the same compound?
Answer: 100%

Question: And the pest or weed control at 100 ppm [5]?
Answer: 100%

Question: And the “Pre-emergence (200 ppm) SETIT” value (Setaria italica (SETIT) [6])?
Answer: 18%

Question: What about the “Post-emergence (100 ppm) ECHCG” value [7] of the same compound?
Answer: 70%

Question: And the pest or weed control at 100 ppm [7]?
Answer: 70%

Question: And the “Pre-emergence (200 ppm) AMARE” value [8]?
Answer: 100%

Question: Which results are given for `COC(=O)C1CN(C(=O)CN2C(=O)C(F)(F)Oc3cc(F)c(-c4c(F)c(F)c(F)c(F)c4F)cc32)C1` [Compound 86, methyl 1-(2-(2,2,7-trifluoro-3-oxo-6-(perfluorophenyl)-2,3-dihydro-4H-benzo[b][1,4]oxazin-4-yl)acetyl)azetidine-3-carboxylate]?
Answer: Post-emergence (100 ppm) KCHSC (Kochia scoparia (KCHSC) [1]): 11%; Post-emergence (100 ppm) SETIT (Setaria italica (SETIT) [2]): 100%; Pre-emergence (200 ppm) KCHSC (Kochia scoparia (KCHSC) [3]): 27%; Pre-emergence (200 ppm) ECHCG [4]: 5%; Post-emergence (100 ppm) AMARE [5]: 100%; Pre-emergence (200 ppm) SETIT (Setaria italica (SETIT) [6]): 7%; Post-emergence (100 ppm) ECHCG [7]: 69%; Pre-emergence (200 ppm) AMARE [8]: 68%

Question: With `CN(CC(=O)O)C(=O)CN1C(=O)C(F)(F)Oc2cc(F)c(-c3c(F)c(F)c(F)c(F)c3F)cc21` [Compound 85, N-methyl-N-(2-(2,2,7-trifluoro-3-oxo-6-(perfluorophenyl)-2,3-dihydro-4H-benzo[b][1,4]oxazin-4-yl)acetyl)glycine] as the compound, how does the pest or weed control at 100 ppm (Setaria italica (SETIT) [2]) read?
Answer: 88%

Question: And the pest or weed control at 100 ppm [5]?
Answer: 100%

Question: And the pest or weed control at 100 ppm [7]?
Answer: 25%

Question: Which pest or weed control at 100 ppm (Setaria italica (SETIT) [2]) does the source give for `C[C@@H](C(=O)O)N1C(=O)C(F)(F)Oc2cc(F)c(-c3c(F)c(F)c(F)c(F)c3F)cc21` [Compound 11, (S)-2-(2,2,7-trifluoro-3-oxo-6-(perfluorophenyl)-2,3-dihydro-4H-benzo[b][1,4]oxazin-4-yl)propanoic acid] here?
Answer: 96%

Question: And the pest or weed control at 100 ppm [5]?
Answer: 95%

Question: What about the pest or weed control at 100 ppm [7] of the same compound?
Answer: 83%

Question: Which results are given for `COC(=O)[C@@H](C)N1C(=O)C(F)(F)Oc2cc(F)c(-c3c(F)c(F)c(F)c(F)c3F)cc21` [Compound 8, methyl (R)-2-(2,2,7-trifluoro-3-oxo-6-(perfluorophenyl)-2,3-dihydro-4H-benzo[b][1,4]oxazin-4-yl)propanoate]?
Answer: pest or weed control at 100 ppm (Setaria italica (SETIT) [2]): 75%; pest or weed control at 100 ppm [5]: 80%; pest or weed control at 100 ppm [7]: 45%

Question: How did the pest or weed control at 100 ppm (Setaria italica (SETIT) [2]) turn out when `COC(=O)[C@@H]1CCCN1C(=O)CN1C(=O)C(F)(F)Oc2cc(F)c(-c3c(F)c(F)c(F)c(F)c3F)cc21` [Compound 74, methyl (2-(2,2,7-trifluoro-3-oxo-6-(perfluorophenyl)-2,3-dihydro-4H-benzo[b][1,4]oxazin-4-yl)acetyl)-L-prolinate] was run?
Answer: 100%

Question: What about the pest or weed control at 100 ppm [5] of the same compound?
Answer: 100%

Question: What about the pest or weed control at 100 ppm [7] of the same compound?
Answer: 33%

Question: Which pest or weed control at 100 ppm (Setaria italica (SETIT) [2]) does the source give for `COC(=O)CCNC(=O)[C@@H](C)N1C(=O)C(F)(F)Oc2cc(F)c(-c3c(F)c(F)c(F)c(F)c3F)cc21` [Compound 131, methyl (R)-3-(2-(2,2,7-trifluoro-3-oxo-6-(perfluorophenyl)-2,3-dihydro-4H-benzo[b][1,4]oxazin-4-yl)propanamido)propanoate] here?
Answer: 83%

Question: What about the pest or weed control at 100 ppm [5] of the same compound?
Answer: 100%

Question: What about the pest or weed control at 100 ppm [7] of the same compound?
Answer: 15%

Question: What does the source list for `COC(=O)CCNC(=O)[C@H](C)N1C(=O)C(F)(F)Oc2cc(F)c(-c3c(F)c(F)c(F)c(F)c3F)cc21` [Compound 130, methyl (S)-3-(2-(2,2,7-trifluoro-3-oxo-6-(perfluorophenyl)-2,3-dihydro-4H-benzo[b][1,4]oxazin-4-yl)propanamido)propanoate]?
Answer: pest or weed control at 100 ppm (Setaria italica (SETIT) [2]): 100%; pest or weed control at 100 ppm [5]: 100%; pest or weed control at 100 ppm [7]: 92%

Question: Which results are given for `COC(=O)[C@H](OC)N1C(=O)C(F)(F)Oc2cc(F)c(-c3c(F)c(F)c(F)c(F)c3F)cc21` [Compound 185, methyl (S)-2-methoxy-2-(2,2,7-trifluoro-3-oxo-6-(perfluorophenyl)-2,3-dihydro-4H-benzo[b][1,4]oxazin-4-yl)acetate]?
Answer: Post-emergence (100 ppm) KCHSC (Kochia scoparia (KCHSC) [1]): 100%; Post-emergence (100 ppm) SETIT (Setaria italica (SETIT) [2]): 100%; Pre-emergence (200 ppm) KCHSC (Kochia scoparia (KCHSC) [3]): 83%; Pre-emergence (200 ppm) ECHCG [4]: 43%; Post-emergence (100 ppm) AMARE [5]: 100%; Pre-emergence (200 ppm) SETIT (Setaria italica (SETIT) [6]): 100%; Post-emergence (100 ppm) ECHCG [7]: 50%; Pre-emergence (200 ppm) AMARE [8]: 100%

Question: With `COC(=O)CCN(C)C(=O)[C@H](C)N1C(=O)C(F)(F)Oc2cc(F)c(-c3c(F)c(F)c(F)c(F)c3F)cc21` [Compound 132, methyl (S)-3-(N-methyl-2-(2,2,7-trifluoro-3-oxo-6-(perfluorophenyl)-2,3-dihydro-4H-benzo[b][1,4]oxazin-4-yl)propanamido)propanoate] as the compound, how does the pest or weed control at 100 ppm (Setaria italica (SETIT) [2]) read?
Answer: 100%

Question: What about the pest or weed control at 100 ppm [5] of the same compound?
Answer: 100%

Question: And the pest or weed control at 100 ppm [7]?
Answer: 70%
